From ChEMBL document CHEMBL3992552, “Mechanisms of action and structure-activity relationships of cytotoxic flavokawain derivatives” (Bioorg Med Chem, 2017)
Activity calls are given as the source filed them. The rule behind the calls is not given here.

Key:
Caco-2 [1] = test: Cytotoxicity against human Caco2 cells assessed as cell survival at 50 uM after 48 hrs by Hoechst 33342 staining based assay relative to control; assay type: functional; conditions: Caco-2, 48 h, read-out: Survival
HCT-116 [2] = test: Cytotoxicity against human HCT116 cells assessed as cell survival at 50 uM after 48 hrs by Hoechst 33342 staining based assay relative to control; assay type: functional; conditions: HCT-116, 48 h, read-out: Survival
PC-3 [3] = test: Cytotoxicity against human PC3 cells assessed as cell survival at 50 uM after 48 hrs by Hoechst 33342 staining based assay relative to control; assay type: functional; conditions: PC-3, 48 h, read-out: Survival
NCI-H727 [4] = test: Cytotoxicity against human NCI-H727 cells assessed as cell survival at 50 uM after 48 hrs by Hoechst 33342 staining based assay relative to control; assay type: functional; conditions: NCI-H727, 48 h, read-out: Survival
HaCaT [5] = test: Cytotoxicity against human HaCaT cells assessed as cell survival at 50 uM after 48 hrs by Hoechst 33342 staining based assay relative to control; assay type: functional; conditions: read-out: Survival
MDA-MB-231 [6] = test: Cytotoxicity against human MDA-MB-231 cells assessed as cell viability after 48 hrs by Hoechst 33342 staining based assay; assay type: functional; conditions: MDA-MB-231, 48 h
HCT-116 [7] = test: Cytotoxicity against human HCT116 cells assessed as cell viability after 48 hrs by Hoechst 33342 staining based assay; assay type: functional; conditions: HCT-116, 48 h
MCF7 [8] = test: Cytotoxicity against human MCF7 assessed as cell viability after 48 hrs by Hoechst 33342 staining based assay; assay type: functional; conditions: MCF7, 48 h
[9] = Selectivity index, ratio of IC50 for human fibroblasts to IC50 for human HuH7 cells
[10] = Selectivity index, ratio of IC50 for human fibroblasts to IC50 for human MDA-MB-231 cells
[11] = Selectivity index, ratio of IC50 for human fibroblasts to IC50 for human PC3 cells
[12] = Selectivity index, ratio of IC50 for human fibroblasts to IC50 for human MCF7 cells
HCT-116 [13] = test: Induction of apoptosis in human HCT116 cells harboring wild-type p53 assessed as increase in late apoptosis at 2 times IC50 after 48 hrs by YoPro/propidium iodide/Hoechst staining based assay; assay type: functional, cell-based
PC-3 [14] = test: Induction of apoptosis in human PC3 cells harboring p53 mutant assessed as increase in early apoptosis at 2 times IC50 after 48 hrs by YoPro/propidium iodide/Hoechst staining based assay; assay type: functional, cell-based
PC-3 [15] = test: Induction of apoptosis in human PC3 cells harboring p53 mutant assessed as increase in late apoptosis at 2 times IC50 after 48 hrs by YoPro/propidium iodide/Hoechst staining based assay; assay type: functional, cell-based
MDA-MB-231 [16] = test: Induction of apoptosis in human MDA-MB-231 cells harboring p53 mutant assessed as increase in late apoptosis at 2 times IC50 after 24 hrs by YoPro/propidium iodide/Hoechst staining based assay; assay type: functional, cell-based
MCF7 [17] = test: Induction of apoptosis in human MCF7 cells harboring wild-type p53 assessed as increase in early apoptosis at 2 times IC50 after 24 hrs by YoPro/propidium iodide/Hoechst staining based assay; assay type: functional, cell-based
Caco-2 [18] = test: Cell cycle arrest in human Caco2 cells assessed as mitotic index at 10 uM measured after 48 hrs by Hoechst staining based fluorescence assay (reference value: 3.6); assay type: functional
PC-3 [19] = test: Cell cycle arrest in human PC3 cells harboring p53 mutant assessed as accumulation at S phase at 10 uM measured after 48 hrs by Hoechst/BrdU staining based fluorescence assay (reference value: 40.8%); assay type: functional
NCI-H727 [20] = test: Cell cycle arrest in human NCI-H727 cells harboring p53 mutant assessed as mitotic index at 10 uM measured after 48 hrs by Hoechst staining based fluorescence assay (reference value: 1.1); assay type: functional
HaCaT [21] = test: Cell cycle arrest in human HaCaT cells harboring […] p53 assessed as accumulation at S phase at 10 uM measured after 48 hrs by Hoechst/BrdU staining based fluorescence assay (reference value: 52.3%); assay type: functional
Huh-7 = test: Cell cycle arrest in human HuH7 cells assessed as accumulation at S phase at 25 uM measured after 48 hrs by Hoechst/BrdU staining based fluorescence assay (reference value: 44%); assay type: functional
Caco-2 [22] = test: Cell cycle arrest in human Caco2 cells assessed as mitotic index at 25 uM measured after 48 hrs by Hoechst staining based fluorescence assay (reference value: 3.6); assay type: functional
Caco-2 [23] = test: Cell cycle arrest in human Caco2 cells assessed as accumulation at S phase at 25 uM measured after 48 hrs by Hoechst/BrdU staining based fluorescence assay (reference value: […]); assay type: functional
MDA-MB-231 [24] = test: Cell cycle arrest in human MDA-MB-231 cells harboring p53 mutant assessed as mitotic index at 25 uM measured after 48 hrs by Hoechst staining based fluorescence assay (reference value: 2.1); assay type: functional
MDA-MB-231 [25] = test: Cell cycle arrest in human MDA-MB-231 cells harboring p53 mutant assessed as accumulation at S phase at 25 uM measured after 48 hrs by Hoechst/BrdU staining based fluorescence assay (reference value: 42.2%); assay type: functional
PC-3 [26] = test: Cell cycle arrest in human PC3 cells harboring p53 mutant assessed as mitotic index at 25 uM measured after 48 hrs by Hoechst staining based fluorescence assay (reference value: 2.5); assay type: functional
PC-3 [27] = test: Cell cycle arrest in human PC3 cells harboring p53 mutant assessed as accumulation at S phase at 25 uM measured after 48 hrs by Hoechst/BrdU staining based fluorescence assay (reference value: 40.8%); assay type: functional
NCI-H727 [28] = test: Cell cycle arrest in human NCI-H727 cells harboring p53 mutant assessed as mitotic index at 25 uM measured after 48 hrs by Hoechst staining based fluorescence assay (reference value: 1.1); assay type: functional
HaCaT [29] = test: Cell cycle arrest in human HaCaT cells harboring […] p53 assessed as mitotic index at 25 uM measured after 48 hrs by Hoechst staining based fluorescence assay (reference value: 2.6); assay type: functional
HaCaT [30] = test: Cell cycle arrest in human HaCaT cells harboring […] p53 assessed as accumulation at S phase at 25 uM measured after 48 hrs by Hoechst/BrdU staining based fluorescence assay (reference value: 52.3%); assay type: functional
MDA-MB-231 [31] = test: Cell cycle arrest in human MDA-MB-231 cells assessed as accumulation at M phase by Hoechst staining based fluorescence assay; assay type: functional
PC-3 [32] = test: Cell cycle arrest in human PC3 cells assessed as accumulation at M phase by Hoechst staining based fluorescence assay; assay type: functional
NCI-H727 [33] = test: Cell cycle arrest in human NCI-H727 cells assessed as accumulation at G1/S phase by Hoechst staining based fluorescence assay; assay type: functional
HaCaT [34] = test: Cell cycle arrest in human HaCaT cells assessed as accumulation at M phase by Hoechst staining based fluorescence assay; assay type: functional
HCT-116 [35] = test: Induction of apoptosis in human HCT116 cells harboring wild-type p53 assessed as upregulation of cyclinB1 measured after 48 hrs by Hoechst staining based assay; assay type: functional, cell-based
MCF7 [36] = test: Induction of apoptosis in human MCF7 cells harboring wild-type p53 assessed as upregulation of cyclinB1 measured after 18 hrs by Hoechst staining based assay; assay type: functional, cell-based
MDA-MB-231 [37] = test: Induction of apoptosis in human MDA-MB-231 cells harboring p53 mutant assessed as upregulation of cyclinB1 after 18 hrs by Hoechst staining based assay; assay type: functional, cell-based

SMILES | viability at 50 µM (Caco-2 [1]) [%] | viability at 50 µM (HCT-116 [2]) [%] | viability at 50 µM (PC-3 [3]) [%] | viability at 50 µM (NCI-H727 [4]) [%] | viability at 50 µM (HaCaT [5]) [%] | IC50 (MDA-MB-231 [6]) [µM] | IC50 (HCT-116 [7]) [µM] | IC50 (MCF7 [8]) [µM] | Ratio IC50 [9] | Ratio IC50 [10] | Ratio IC50 [11] | Ratio IC50 [12] | Activity (HCT-116 [13]) | Activity (PC-3 [14]) | Activity (PC-3 [15]) | Activity (MDA-MB-231 [16]) | Activity (MCF7 [17]) | Activity_index (Caco-2 [18]) | Activity (PC-3 [19]) [%] | Activity_index (NCI-H727 [20]) | further results
COc1cc(OC)c(C(=O)/C=C/c2ccc(F)cc2)c(OC)c1 | 3 | 1 | 26 | 4 | 21 | 10.7 | 6.2 | 7.7 | >3.4 | >4.7 | >9.1 | >6.5 | Active | Active | Active | Active | Active | 32 | 27 | 1.1 | Activity (HaCaT [21]): 20%; Activity (Huh-7): 1.1%; Activity_index (Caco-2 [22]): 4.2; Activity (Caco-2 [23]): 13%; Activity_index (MDA-MB-231 [24]): 4.8; Activity (MDA-MB-231 [25]): 10%; Activity_index (PC-3 [26]): 0.4; Activity (PC-3 [27]): 0.4%; Activity_index (NCI-H727 [28]): 0.4; Activity_index (HaCaT [29]): 0; Activity (HaCaT [30]): 0.4%; Activity (MDA-MB-231 [31]): Active; Activity (PC-3 [32]): Active; Activity (NCI-H727 [33]): Active; Activity (HaCaT [34]): Active; Activity (HCT-116 [35]): Active; Activity (MCF7 [36]): Active; Activity (MDA-MB-231 [37]): Active
COc1cc(OC)c(C(=O)/C=C/c2ccccc2)c(OC)c1 | 5 | 1 | 29 | 1 | 20 | 12.9 | 6.9 | 9.4 | >3.2 | >3.9 | >9.8 | >5.3 | Active | Active | Active | Active | Active | 38.7 | 24 | 1.3 | Activity (HaCaT [21]): 18%; Activity (Huh-7): 0.7%; Activity_index (Caco-2 [22]): 13; Activity (Caco-2 [23]): 24%; Activity_index (MDA-MB-231 [24]): 13.2; Activity (MDA-MB-231 [25]): 23%; Activity_index (PC-3 [26]): 1.2; Activity (PC-3 [27]): 1.7%; Activity_index (NCI-H727 [28]): 0.2; Activity_index (HaCaT [29]): 0.1; Activity (HaCaT [30]): 0.1%; Activity (MDA-MB-231 [31]): Active; Activity (PC-3 [32]): Active; Activity (NCI-H727 [33]): Active; Activity (HaCaT [34]): Active; Activity (HCT-116 [35]): Active; Activity (MCF7 [36]): Active; Activity (MDA-MB-231 [37]): Active
COc1cc(OC)c(C(=O)/C=C/c2ccc(Br)cc2)c(OC)c1 | 0 | 0 | 10 | 2 | 6 | 11.1 | 6.2 | 9.5 | >3.6 | >4.5 | >7 | >5.3 | Active | Active | Active | Active | Active | 30.7 | 35 | 1 | Activity (HaCaT [21]): 24%; Activity (Huh-7): 0.2%; Activity_index (Caco-2 [22]): 1.4; Activity (Caco-2 [23]): 1.9%; Activity_index (MDA-MB-231 [24]): 3.4; Activity (MDA-MB-231 [25]): 44%; Activity_index (PC-3 [26]): 0; Activity (PC-3 [27]): 0.4%; Activity_index (NCI-H727 [28]): 0.7; Activity_index (HaCaT [29]): 0; Activity (HaCaT [30]): 0.3%; Activity (MDA-MB-231 [31]): Active; Activity (PC-3 [32]): Active; Activity (NCI-H727 [33]): Active; Activity (HaCaT [34]): Active; Activity (HCT-116 [35]): Active; Activity (MCF7 [36]): Active; Activity (MDA-MB-231 [37]): Active
COc1cc(OC)c(C(=O)/C=C/c2ccccc2SC)c(OC)c1 | 17 | 0 | 30 | 1 | 6 | 9.9 | 6.8 | 9.3 | 2.3 | 3.2 | 4.2 | 3.4 | Active | Active | Active | Active | Active | 29.3 | 30 | 1 | Activity (HaCaT [21]): 24%; Activity (Huh-7): 0.3%; Activity_index (Caco-2 [22]): 4.2; Activity (Caco-2 [23]): 2.2%; Activity_index (MDA-MB-231 [24]): 13.2; Activity (MDA-MB-231 [25]): 16%; Activity_index (PC-3 [26]): 0.3; Activity (PC-3 [27]): 0%; Activity_index (NCI-H727 [28]): 0; Activity_index (HaCaT [29]): 0.1; Activity (HaCaT [30]): 0%; Activity (MDA-MB-231 [31]): Active; Activity (PC-3 [32]): Active; Activity (NCI-H727 [33]): Active; Activity (HaCaT [34]): Active; Activity (HCT-116 [35]): Active; Activity (MCF7 [36]): Active; Activity (MDA-MB-231 [37]): Active
COc1cccc(/C=C/C(=O)c2c(OC)cc(OC)cc2OC)c1 | 2 | 0 | 19 | 1 | 18 | 8.7 | 4.3 | 9.4 | >5.6 | >5.7 | >16.1 | >5.3 | Active | Active | Active | Active | Active | 36.8 | 23 | 1.7 | Activity (HaCaT [21]): 19%; Activity (Huh-7): 0.3%; Activity_index (Caco-2 [22]): 4.8; Activity (Caco-2 [23]): 6%; Activity_index (MDA-MB-231 [24]): 3.5; Activity (MDA-MB-231 [25]): 12%; Activity_index (PC-3 [26]): 0.3; Activity (PC-3 [27]): 0.9%; Activity_index (NCI-H727 [28]): 0.1; Activity_index (HaCaT [29]): 0.1; Activity (HaCaT [30]): 0%; Activity (MDA-MB-231 [31]): Active; Activity (PC-3 [32]): Active; Activity (NCI-H727 [33]): Active; Activity (HaCaT [34]): Active; Activity (HCT-116 [35]): Active; Activity (MCF7 [36]): Active; Activity (MDA-MB-231 [37]): Active
